Reference: the supplement of paper PMC10307832

Columns and labels:
Assay in all cases: relative viability (nuclei count vs DMSO), 5 days (fraction); higher = more cells survive
Vandetanib + Pictilisib = compound: COc1cc2/c(=N/c3ccc(Br)cc3F)nc[nH]c2cc1OCC1CCN(C)CC1 [Vandetanib] + CS(=O)(=O)N1CCN(Cc2cc3nc(-c4cccc5[nH]ncc45)nc(N4CCOCC4)c3s2)CC1 [Pictilisib] (partner 1 µM)
Outline: (§1)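 Lung cancer cell lines in 1536-well plates were dosed by pin tool the day after seeding, either with one drug alone or with a fixed anchor-drug dose plus five library-drug doses (not always all listed) in √10 steps. After 5 days, cells were fixed and their nuclei stained in one step (final 0.05% Triton X-100, 1% formaldehyde, 1 ug/ml Hoechst), then counted on 4× images. Relative viability is the nuclei count in treated wells divided by that in vehicle wells. Values are medians of duplicate plates.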

CUDC-101 + Pictilisib = compound: C#Cc1cccc(Nc2ncnc3cc(OC)c(OCCCCCCC(=O)NO)cc23)c1 [CUDC-101] + CS(=O)(=O)N1CCN(Cc2cc3nc(-c4cccc5[nH]ncc45)nc(N4CCOCC4)c3s2)CC1 [Pictilisib] (partner 1 µM)
Outline: as §1

[1] = compound: C1=CC=C2C(=C1)N=C(S2)C(C#N)C3=NC(=NC=C3)NCCC4=CN=CC=C4 + Nc1ncn([C@H]2C[C@H](O)[C@@H](CO)O2)c(=O)n1 [Decitabine] (partner 2 µM)
Outline: as §1

CUDC-101 + Trametinib = compound: C#Cc1cccc(Nc2ncnc3cc(OC)c(OCCCCCCC(=O)NO)cc23)c1 [CUDC-101] + CC(=O)Nc1cccc(-n2c(=O)n(C3CC3)c(=O)c3c(Nc4ccc(I)cc4F)n(C)c(=O)c(C)c32)c1 [Trametinib] (partner 0.02 µM)
Outline: as §1

| Cell Line | relative viability (Vandetanib + Pictilisib; first compound 0.02 µM) | relative viability (Vandetanib + Pictilisib; first compound 0.06325 µM) | relative viability (Vandetanib + Pictilisib; first compound 0.2 µM) | relative viability (Vandetanib + Pictilisib; first compound 0.6325 µM) | relative viability (Vandetanib + Pictilisib; first compound 2 µM) | relative viability (CUDC-101 + Pictilisib; first compound 0.01 µM) | relative viability (CUDC-101 + Pictilisib; first compound 0.03162 µM) | relative viability (CUDC-101 + Pictilisib; first compound 0.1 µM) | relative viability (CUDC-101 + Pictilisib; first compound 0.3162 µM) | relative viability (CUDC-101 + Pictilisib; first compound 1 µM) | relative viability ([1]; first compound 0.005 µM) | relative viability ([1]; first compound 0.01581 µM) | relative viability ([1]; first compound 0.05 µM) | relative viability ([1]; first compound 0.1581 µM) | relative viability ([1]; first compound 0.5 µM) | relative viability (CUDC-101 + Trametinib; first compound 0.01 µM) | relative viability (CUDC-101 + Trametinib; first compound 0.03162 µM) | relative viability (CUDC-101 + Trametinib; first compound 0.1 µM) | relative viability (CUDC-101 + Trametinib; first compound 0.3162 µM) | relative viability (CUDC-101 + Trametinib; first compound 1 µM) |
| --- | --- | --- | --- | --- | --- | --- | --- | --- | --- | --- | --- | --- | --- | --- | --- | --- | --- | --- | --- | --- |
| ChaGo-K-1 | 0.632 | 0.713 | 0.619 | 0.87 | 0.28 | 1.03 | 1.04 | 0.784 | 0.746 | 0.568 | 0.488 | 0.53 | 0.518 | 0.542 | 0.511 | 0.958 | 0.898 | 0.909 | 0.87 | 0.784 |
| EBC-1 | 0.465 | 0.345 | 0.404 | 0.359 | 0.242 | 0.43 | 0.325 | 0.328 | 0.159 | 0.0697 | – | – | – | – | – | – | – | – | – | – |
| EKVX | 0.404 | 0.396 | 0.404 | 0.363 | 0.213 | 0.452 | 0.403 | 0.412 | 0.355 | 0.215 | 0.152 | 0.286 | 0.309 | 0.329 | 0.23 | 0.353 | 0.349 | 0.335 | 0.407 | 0.224 |
| EMC-BAC-2 | 0.556 | 0.51 | 0.358 | 0.484 | 0.538 | 0.531 | 0.61 | 0.606 | 0.557 | 0.351 | 0.872 | 0.984 | 0.916 | 1.04 | 0.91 | 0.918 | 0.811 | 0.864 | 0.779 | 0.479 |
| EPLC-272H | 0.363 | 0.311 | 0.121 | 0.355 | 0.166 | 0.449 | 0.434 | 0.275 | 0.244 | 0.18 | 0.501 | 0.337 | 0.36 | 0.385 | 0.309 | 0.279 | 0.258 | 0.26 | 0.265 | 0.229 |
| H3255 | 0.469 | 0.392 | 0.386 | 0.263 | 0.126 | 0.618 | 0.382 | 0.143 | 0.181 | 0.0818 | 0.574 | 0.561 | 0.561 | 0.639 | 0.726 | 0.596 | 0.536 | – | 0.445 | 0.209 |
| HARA | 0.385 | 0.248 | 0.337 | 0.369 | 0.392 | 0.684 | 0.475 | 0.293 | 0.215 | 0.157 | 0.7 | 0.574 | 0.634 | 0.538 | 0.584 | 0.417 | 0.487 | – | 0.356 | 0.235 |
| HCC-15 | 0.795 | 0.678 | 0.696 | 0.767 | 0.796 | 0.683 | 0.774 | 0.713 | 0.79 | 0.569 | 0.568 | 0.608 | 0.644 | 0.66 | 0.564 | 0.396 | 0.382 | 0.385 | 0.399 | 0.262 |
| HCC-44 | 0.58 | 0.543 | 0.556 | 0.613 | 0.634 | 0.593 | 0.63 | 0.531 | 0.69 | 0.366 | 0.956 | 0.933 | 0.971 | 0.978 | 1.01 | 1.04 | 1.08 | 1.04 | 1.05 | 1.03 |
